PubChem BioAssay (NCI)
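Where inhibition never reached the appropriate level, the endpoint shown equals the highest concentration tested. Otherwise, values were interpolated linearly from a five-concentration, 48-hour dose response in 96-well plates. GI50: concentration for 50% inhibition of growth. The concentration for full growth arrest is given as TGI.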

Legend:
Test in all cases: NCI tumour cell line growth inhibition, 48 h
[1] = test system: 786-0 renal
[2] = test system: HCC-2998 colon
[3] = test system: MDA-MB-435
[4] = test system: COLO 205 colon
[5] = test system: OVCAR-4 ovarian
[6] = test system: SF-539 CNS
[7] = test system: SK-MEL-28 melanoma
[8] = test system: SW-620 colon
[9] = test system: SK-OV-3 ovarian
[10] = test system: SK-MEL-2 melanoma
[11] = test system: MOLT-4 leukemia
[12] = test system: CAKI-1 renal
[13] = test system: K-562 leukemia
[14] = test system: IGROV1 ovarian
[15] = test system: OVCAR-8 ovarian
[16] = test system: UACC-62 melanoma
[17] = test system: M14 melanoma
[18] = test system: A498 renal
[19] = test system: RXF 393 renal
[20] = test system: UACC-257 melanoma
[21] = test system: OVCAR-3 ovarian
[22] = test system: A549 NSCLC
[23] = test system: HS 578T breast
[24] = test system: MALME-3M melanoma
[25] = test system: BT-549 breast
[26] = test system: HOP-62 NSCLC
[27] = test system: MDA-MB-468 breast
[28] = test system: DU-145 prostate
[29] = test system: SF-295 CNS
[30] = test system: T-47D breast
[31] = test system: HT29 colon
[32] = test system: UO-31 renal
[33] = test system: HCT-15 colon
[34] = test system: LOX IMVI melanoma
[35] = test system: SF-268 CNS
[36] = test system: HCT-116 colon
[37] = test system: PC-3 prostate
[38] = test system: NCI-H460 lung
[39] = test system: HOP-92 NSCLC
[40] = test system: NCI-H23 lung
[41] = test system: SR leukemia
[42] = test system: EKVX NSCLC
[43] = test system: NCI-H522 lung
[44] = test system: OVCAR-5 ovarian
[45] = test system: CCRF-CEM leukemia
[46] = test system: NCI/ADR-RES ovarian
[47] = test system: MDA-MB-231 breast
[48] = test system: MCF7 breast
[49] = test system: SNB-19 CNS
[50] = test system: ACHN renal
[51] = test system: SN12C renal
[52] = test system: RPMI-8226 leukemia
[53] = test system: NCI-H226 lung
[54] = test system: TK-10 renal
[55] = test system: SNB-75 CNS
[56] = test system: KM12 colon
[57] = test system: U251 CNS
[58] = test system: HL-60(TB) leukemia
[59] = test system: SK-MEL-5 melanoma

Cc1ccc(C(=O)NCCCNc2nc(Nc3ccc(N4CCN(C)CC4)cc3)nc3ccsc23)cc1
GI50 [1]: 2.02 µM | TGI [1]: 6.3 µM | GI50 [2]: 3.44 µM | TGI [2]: 9.5 µM | GI50 [3]: 4.31 µM | TGI [3]: 15.5 µM | GI50 [4]: 2.35 µM | TGI [4]: 5.43 µM | GI50 [5]: 3.45 µM | TGI [5]: 15 µM | GI50 [6]: 1.73 µM | TGI [6]: 3.42 µM | GI50 [7]: 2.18 µM | TGI [7]: 4.64 µM | GI50 [8]: 2.63 µM | TGI [8]: 8 µM | GI50 [9]: 10.8 µM | TGI [9]: 24 µM | GI50 [10]: 4.33 µM | TGI [10]: 16.5 µM | GI50 [11]: 1.8 µM | TGI [11]: 4.89 µM | GI50 [12]: 3.3 µM | TGI [12]: 14.1 µM | GI50 [13]: 1.74 µM | TGI [13]: 18.4 µM | GI50 [14]: 4.4 µM | TGI [14]: 17 µM | GI50 [15]: 3 µM | TGI [15]: 11.7 µM | GI50 [16]: 1.98 µM | TGI [16]: 4.21 µM | GI50 [17]: 2.14 µM | TGI [17]: 4.77 µM | GI50 [18]: 12.3 µM | TGI [18]: 24.9 µM | GI50 [19]: 1.47 µM | TGI [19]: 3.71 µM | GI50 [20]: 2.2 µM | TGI [20]: 6.2 µM | GI50 [21]: 3.08 µM | TGI [21]: 10.9 µM | GI50 [22]: 3.99 µM | TGI [22]: 16.3 µM | GI50 [23]: 2.55 µM | TGI [23]: 18.3 µM | GI50 [24]: 1.79 µM | TGI [24]: 3.27 µM | GI50 [25]: 2.46 µM | TGI [25]: 7.15 µM | GI50 [26]: 10.3 µM | TGI [26]: 23.4 µM | GI50 [27]: 1.3 µM | TGI [27]: 4.45 µM | GI50 [28]: 5.89 µM | TGI [28]: 19.2 µM | GI50 [29]: 2.68 µM | TGI [29]: 7.7 µM | GI50 [30]: 2.25 µM | TGI [30]: 7.62 µM | GI50 [31]: 2.06 µM | TGI [31]: 5.96 µM | GI50 [32]: 3.57 µM | TGI [32]: 15.3 µM | GI50 [33]: 2.54 µM | TGI [33]: 11.2 µM | GI50 [34]: 1.71 µM | TGI [34]: 3.86 µM | GI50 [35]: 2.46 µM | TGI [35]: 17.9 µM | GI50 [36]: 2.62 µM | TGI [36]: 10.2 µM | GI50 [37]: 3.33 µM | TGI [37]: 14.8 µM | GI50 [38]: 3.75 µM | TGI [38]: 14 µM | GI50 [39]: 2.23 µM | TGI [39]: 10.4 µM | GI50 [40]: 5.59 µM | TGI [40]: 20.5 µM | GI50 [41]: 1.69 µM | TGI [41]: 4.71 µM | GI50 [42]: 10.2 µM | TGI [42]: 22.3 µM | GI50 [43]: 2.21 µM | TGI [43]: 5.86 µM | GI50 [44]: 11 µM | TGI [44]: 25.5 µM | GI50 [45]: 1.87 µM | TGI [45]: > 100 µM | GI50 [46]: 3.11 µM | TGI [46]: 11.4 µM | GI50 [47]: 3.17 µM | TGI [47]: 10.7 µM | GI50 [48]: 3.22 µM | TGI [48]: 11.4 µM | GI50 [49]: 10.2 µM | TGI [49]: 22.2 µM | GI50 [50]: 3.99 µM | TGI [50]: 15 µM | GI50 [51]: 7.19 µM | TGI [51]: 20.7 µM | GI50 [52]: 2.02 µM | TGI [52]: 6.4 µM | GI50 [53]: 4.79 µM | TGI [53]: 19.4 µM | GI50 [54]: 3.14 µM | TGI [54]: 9.36 µM | GI50 [55]: 1.91 µM | TGI [55]: 12.1 µM | GI50 [56]: 4.02 µM | TGI [56]: 15.8 µM | GI50 [57]: 2.78 µM | TGI [57]: 11.1 µM | GI50 [58]: 1.99 µM | TGI [58]: 4.52 µM | GI50 [59]: 1.84 µM | TGI [59]: 4.08 µM
